From patent US9481670B2, “Triazine compounds” (Sphaera Pharma PTE. Ltd., priority 2011, dated 2016) come the findings set out here.

SMILES strings stand for the structures. Where only a bound is given, the exact number is not on record here.

For the experiment, the target named is T1, PI3K alpha (Homo sapiens, UniProt P42336).
T1 construct: purchased Millipore Upstate
T1 sequence (P42336 whole entry): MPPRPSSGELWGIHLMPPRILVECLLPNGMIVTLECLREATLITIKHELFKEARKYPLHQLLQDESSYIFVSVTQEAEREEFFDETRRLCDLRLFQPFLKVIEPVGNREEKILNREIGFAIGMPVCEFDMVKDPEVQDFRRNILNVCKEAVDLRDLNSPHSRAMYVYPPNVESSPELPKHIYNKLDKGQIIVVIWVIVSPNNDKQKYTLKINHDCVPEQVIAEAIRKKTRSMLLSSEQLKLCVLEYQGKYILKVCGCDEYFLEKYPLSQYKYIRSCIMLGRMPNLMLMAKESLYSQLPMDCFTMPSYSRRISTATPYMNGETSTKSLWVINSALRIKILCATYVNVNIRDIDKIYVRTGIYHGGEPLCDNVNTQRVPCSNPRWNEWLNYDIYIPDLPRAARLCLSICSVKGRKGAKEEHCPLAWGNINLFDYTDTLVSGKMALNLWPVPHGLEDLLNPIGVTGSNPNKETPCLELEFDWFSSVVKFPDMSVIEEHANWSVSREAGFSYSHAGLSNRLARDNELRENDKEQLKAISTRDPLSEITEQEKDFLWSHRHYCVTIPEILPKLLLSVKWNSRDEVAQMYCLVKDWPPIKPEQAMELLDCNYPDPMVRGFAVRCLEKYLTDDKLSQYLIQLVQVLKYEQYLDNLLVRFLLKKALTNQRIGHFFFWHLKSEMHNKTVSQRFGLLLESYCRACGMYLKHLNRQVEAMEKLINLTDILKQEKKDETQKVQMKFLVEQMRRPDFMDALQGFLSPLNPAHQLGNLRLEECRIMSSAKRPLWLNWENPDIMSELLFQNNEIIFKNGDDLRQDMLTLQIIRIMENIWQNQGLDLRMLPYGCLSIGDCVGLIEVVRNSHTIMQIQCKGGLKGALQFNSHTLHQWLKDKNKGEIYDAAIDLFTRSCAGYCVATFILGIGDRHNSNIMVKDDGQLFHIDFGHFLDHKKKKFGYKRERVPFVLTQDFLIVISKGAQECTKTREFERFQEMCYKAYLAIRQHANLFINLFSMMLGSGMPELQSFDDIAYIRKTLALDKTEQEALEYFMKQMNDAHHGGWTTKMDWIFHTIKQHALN
T1 sequence (P27986 whole entry partner): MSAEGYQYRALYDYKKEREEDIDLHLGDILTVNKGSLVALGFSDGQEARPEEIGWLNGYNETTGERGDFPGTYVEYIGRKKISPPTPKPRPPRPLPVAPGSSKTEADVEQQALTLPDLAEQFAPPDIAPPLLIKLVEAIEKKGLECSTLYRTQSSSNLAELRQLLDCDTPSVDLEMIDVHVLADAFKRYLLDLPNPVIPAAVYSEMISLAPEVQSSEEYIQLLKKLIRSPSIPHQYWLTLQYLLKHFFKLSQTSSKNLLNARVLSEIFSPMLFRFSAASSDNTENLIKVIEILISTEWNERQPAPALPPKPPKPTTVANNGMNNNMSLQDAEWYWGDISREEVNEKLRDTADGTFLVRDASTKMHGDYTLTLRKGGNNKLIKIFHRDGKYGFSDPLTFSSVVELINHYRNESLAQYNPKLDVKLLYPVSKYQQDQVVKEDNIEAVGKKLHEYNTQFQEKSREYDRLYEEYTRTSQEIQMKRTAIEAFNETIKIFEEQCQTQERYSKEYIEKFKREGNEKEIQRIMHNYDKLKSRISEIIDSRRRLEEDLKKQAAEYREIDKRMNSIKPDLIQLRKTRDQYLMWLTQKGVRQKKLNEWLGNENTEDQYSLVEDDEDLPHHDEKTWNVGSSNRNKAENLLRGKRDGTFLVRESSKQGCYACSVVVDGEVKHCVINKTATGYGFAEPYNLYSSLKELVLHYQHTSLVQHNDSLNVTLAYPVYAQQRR
The experiment is described as follows: P110 Alpha TR-FRET Assay (PI3K alpha kinase assay, HTRF Transcreener ADP Assay). Type of experiment: biochemical. The settings on record: PI3K (WT). The essentials: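 Enzyme (50 ng) and compound were preincubated 20 min in HEPES pH 7.5 buffer containing MgCl2, DTT and vanadate before 10 μM ATP plus 5 μM PIP2 substrate was added for 20 min. ADP produced was quantified by TR-FRET (ADP-d2, anti-ADP cryptate, 1 h).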
As usually defined, the IC50 is the concentration needed to halve the response being measured. For the compound `Nc1nc(-c2ccccc2)nc(N2CCOCC2)n1` [Compound 1162, 4-0-(morpholin-4-yl)-6-4-phenyl-1,3,5-triazin-2-amine], the IC50 was over 5 µM.

`O=C1CN(C(=O)c2cccc(Nc3nc(-c4cccc5[nH]ncc45)nc(N4CCOCC4)n3)c2)CCN1` [Compound 1163, 4-(3-((4-(1H-indazol-4-yl)-6-morpholino-1,3,5-triazin-2-yl)amino)benzoyl)piperazin-2-one] displayed an IC50 of under 5 µM.

Regarding `COC1CN(C(=O)c2cccc(Nc3nc(-c4cccc5[nH]ncc45)nc(N4CCOCC4)n3)c2)C1` [Compound 1164, (3-((4-(1H-indazol-4-yl)-6-morpholino-1,3,5-triazin-2-yl)amino)phenyl)(3-methoxyazetidin-1-yl)methanone], the IC50 was under 5 µM.

The compound `C[C@H](Nc1nc(-c2ccc(N)nc2)nc(N2CCOCC2)n1)C(=O)N(C)C` [Compound 1165, 2-((4-(6-aminopyridin-3-yl)-6-morpholino-1,3,5-triazin-2-yl)amino)-N,N-dimethylpropanamide] displayed an IC50 of under 5 µM.

In the case of `c1ccc(CSc2nc(-c3cccc4[nH]ncc34)nc(N3CCOCC3)n2)cc1` [Compound 1166, 4-(4-(benzylthio)-6-(1H-indazol-4-yl)-1,3,5-triazin-2-yl)morpholine], the IC50 was under 5 µM.

Regarding `CN(C)C(=O)CNc1nc(-c2cccc(O)c2)nc(N2CCOCC2)n1` [Compound 1167, 2-((4-(3-hydroxyphenyl)-6-morpholino-1,3,5-triazin-2-yl)amino)-N,N-dimethylacetamide], the IC50 was under 5 µM.

Turning to `CNC(=O)CNc1nc(-c2cccc(O)c2)nc(N2CCOCC2)n1` [Compound 1168, 2-((4-(3-hydroxyphenyl)-6-morpholino-1,3,5-triazin-2-yl)amino)-N-methylacetamide], the IC50 is under 5 µM.

For `O=C(O)CNc1nc(-c2cccc([N+](=O)[O-])c2)nc(N2CCOCC2)n1` [Compound 1169, 2-((4-morpholino-6-(3-nitrophenyl)-1,3,5-triazin-2-yl)amino)acetic acid], the IC50 was over 5 µM.

Compound `O=C(c1cccc(Nc2nc(-c3cccc4[nH]ncc34)nc(N3CCOCC3)n2)c1)N1CCNCC1` [Compound 1171, (3-((4-(1H-indazol-4-yl)-6-morpholino-1,3,5-triazin-2-yl)amino)phenyl)(piperazin-1-yl)methanone] showed an IC50 of under 5 µM.

With `CN1CCN(C(=O)c2cccc(Nc3nc(-c4cccc5[nH]ncc45)nc(N4CCOCC4)n3)c2)CC1` [Compound 1172, (3-((4-(1H-indazol-4-yl)-6-morpholino-1,3,5-triazin-2-yl)amino)phenyl)(4-methylpiperazin-1-yl)methanone], the IC50 is under 5 µM.

Compound `O=C(c1cccc(Nc2nc(-c3cccc4[nH]ncc34)nc(N3CCOCC3)n2)c1)N1CCOCC1` [Compound 1173, (3-((4-(1H-indazol-4-yl)-6-morpholino-1,3,5-triazin-2-yl)amino)phenyl)(morpholino)methanone] showed an IC50 of under 5 µM.

`CCOc1ccc(NC(=O)C2CCN(c3nc(-c4cccc5[nH]ncc45)nc(N4CCOCC4)n3)C2)cc1` (stereo not drawn) [Compound 1174, N-(4-23-ethoxyphenyl)-1-12-[4-1-(1H-indazol-4-yl)-6-5-(morpholin-4-yl)-1,3,5-triazin-2-yl]pyrrolidine-3-carboxamide] displayed an IC50 of under 5 µM.

For the compound `CC(C)C(Nc1nc(-c2cccc(O)c2)nc(N2CCOCC2)n1)C(=O)O` (stereo not drawn) [Compound 1175, 2-((4-(3-hydroxyphenyl)-6-morpholino-1,3,5-triazin-2-yl)amino)-3-methylbutanoic acid], the IC50 is under 5 µM.

`O=C(O)CNc1nc(-c2ccc(O)nc2)nc(N2CCOCC2)n1` [Compound 1176, 2-((4-(6-hydroxypyridin-3-yl)-6-morpholino-1,3,5-triazin-2-yl)amino)acetic acid] registered an IC50 of over 5 µM.

In the case of `CNC(=O)c1ccc(C)c(Nc2nc(-c3cccc4[nH]ncc34)nc(N3CCOCC3)n2)c1` [Compound 1177, 3-((4-(1H-indazol-4-yl)-6-morpholino-1,3,5-triazin-2-yl)amino)-N,4-dimethylbenzamide], the IC50 is under 5 µM.

In the case of `Cc1ccc(C(=O)N(C)C)cc1Nc1nc(-c2cccc3[nH]ncc23)nc(N2CCOCC2)n1` [Compound 1178, 3-((4-(1H-indazol-4-yl)-6-morpholino-1,3,5-triazin-2-yl)amino)-N,N,4-trimethylbenzamide], the IC50 is under 5 µM.

The compound `O=C(O)CNc1nc(-c2ccc(F)nc2)nc(N2CCOCC2)n1` [Compound 1179, 2-((4-(6-fluoropyridin-3-yl)-6-morpholino-1,3,5-triazin-2-yl)amino)acetic acid] came in with an IC50 of over 5 µM.

Turning to `CN(C)C(=O)N1CCN(Cc2nc(-c3cccc4[nH]ncc34)nc(N3CCOCC3)n2)CC1` [Compound 1180, 4-((4-(1H-1-indazol-4-yl)-6-morpholino-1,3,5-triazin-2-yl)methyl)-N,N-dimethylpiperazine-1-carboxamide], the IC50 was under 5 µM.

The compound `NC(=O)CNc1nc(-c2cccc(O)c2)nc(N2CCOCC2)n1` [Compound 1181, 2-((4-(3-hydroxyphenyl)-6-morpholino-1,3,5-triazin-2-yl)amino)acetamide] came in with a concentration for half-maximal inhibition (IC50) of under 5 µM.

In turn, `NC(=O)c1cccn1-c1nc(-c2cccc3[nH]ncc23)nc(N2CCOCC2)n1` [Compound 1182, 1-8-[4-1-(1H-indazol-4-yl)-6-5-(morpholin-4-yl)-1,3,5-triazin-2-yl]-1H-pyrrole-2-carboxamide] registered an IC50 of under 5 µM.

`COc1cccc(-c2nc(NCC(=O)O)nc(N3CCOCC3)n2)c1` [Compound 1183, 2-((4-(3-methoxyphenyl)-6-morpholino-1,3,5-triazin-2-yl)amino)acetic acid] had an IC50 of over 5 µM.

Take `O=C(O)CNc1nc(-c2cccc(NO)c2)nc(N2CCOCC2)n1` [Compound 1184, 2-((4-(3-(hydroxyamino)phenyl)-6-morpholino-1,3,5-triazin-2-yl)amino)acetic acid]: the IC50 was over 5 µM.

The compound `CN(C)C(=O)CNc1nc(-c2ccc(N)cc2)nc(N2CCOCC2)n1` [Compound 1185, 2-((4-(4-aminophenyl)-6-morpholino-1,3,5-triazin-2-yl)amino)-N,N-dimethylacetamide] had a half-inhibitory concentration (IC50) of over 5 µM.

In the case of `Cc1c(Nc2nc(-c3cccc4[nH]ncc34)nc(N3CCOCC3)n2)cccc1C(N)=O` [Compound 1186, 3-((4-(1H-indazol-4-yl)-6-morpholino-1,3,5-triazin-2-yl)amino)-2-methylbenzamide], the IC50 is under 5 µM.

As to `CC(Nc1nc(-c2cccc(O)c2)nc(N2CCOCC2)n1)C(=O)O` (stereo not drawn) [Compound 1187, 2-((4-(3-hydroxyphenyl)-6-morpholino-1,3,5-triazin-2-yl)amino)propanoic acid], the IC50 is under 5 µM.

With `CC(C)(Nc1nc(-c2cccc(O)c2)nc(N2CCOCC2)n1)C(=O)O` [Compound 1188, 2-((4-(3-hydroxyphenyl)-6-morpholino-1,3,5-triazin-2-yl)amino)-2-methylpropanoic acid], the IC50 was under 5 µM.

As to `CN(C)C(=O)c1cccc(Nc2nc(-c3cccc4[nH]ncc34)nc(N3CCOCC3)n2)c1` [Compound 1190, 3-((4-(1H-indazol-4-yl)-6-morpholino-1,3,5-triazin-2-yl)amino)-N,N-dimethylbenzamide], the IC50 was under 5 µM.
